Results from ChEMBL document CHEMBL1201861, “Genomics of Drug Sensitity in Cancer screening data, Wellcome Trust Sanger Institute”.

test system: NCI-H446; assay: cells; assay type: functional, cell-based, Homo sapiens; settings: Homo sapiens, NCI-H446;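 note: growth inhibition of NCI-H446 cells determined by a cell viability assay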
Description: SANGER: Inhibition of human NCI-H446 cell growth in a cell viability assay.

Structure (SMILES)	IC50
CC[C@H](CO)Nc1nc(NCc2ccccc2)c2ncn(C(C)C)c2n1 [SELICICLIB]	> 16 µM

test system: NCI-H69; assay: cells; assay type: functional, cell-based, Homo sapiens; settings: Homo sapiens, NCI-H69;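 note: growth inhibition of the cell line, read out with a cell viability assay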
Description: SANGER: Inhibition of human NCI-H69 cell growth in a cell viability assay.

Structure (SMILES)	IC50
CC[C@H](CO)Nc1nc(NCc2ccccc2)c2ncn(C(C)C)c2n1 [SELICICLIB]	> 16 µM

test system: SNU-5; assay: cells; assay type: functional, cell-based, Homo sapiens; settings: Homo sapiens, SNU-5;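 note: cell viability readout used to measure growth inhibition in human NCI-SNU-5 cells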
Description: SANGER: Inhibition of human NCI-SNU-5 cell growth in a cell viability assay.

Structure (SMILES)	IC50
CC[C@H](CO)Nc1nc(NCc2ccccc2)c2ncn(C(C)C)c2n1 [SELICICLIB]	> 16 µM

test system: NH-12; assay: cells; assay type: functional, cell-based, Homo sapiens; settings: Homo sapiens, NH-12;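 note: growth inhibition of NH-12 cells, read out with a cell viability assay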
Description: SANGER: Inhibition of human NH-12 cell growth in a cell viability assay.

Structure (SMILES)	IC50
CC[C@H](CO)Nc1nc(NCc2ccccc2)c2ncn(C(C)C)c2n1 [SELICICLIB]	> 16 µM

test system: QIMR-WIL; assay: cells; assay type: functional, cell-based, Homo sapiens; settings: Homo sapiens, QIMR-WIL;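 note: growth inhibition of QIMR-WIL cells, read out with a cell viability assay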
Description: SANGER: Inhibition of human QIMR-WIL cell growth in a cell viability assay.

Structure (SMILES)	IC50
CC[C@H](CO)Nc1nc(NCc2ccccc2)c2ncn(C(C)C)c2n1 [SELICICLIB]	> 16 µM

test system: RS4-11; assay: cells; assay type: functional, cell-based, Homo sapiens; settings: Homo sapiens, RS4-11;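 note: growth inhibition of RS4-11 cells, read out by a cell viability assay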
Description: SANGER: Inhibition of human RS4-11 cell growth in a cell viability assay.

Structure (SMILES)	IC50
CC[C@H](CO)Nc1nc(NCc2ccccc2)c2ncn(C(C)C)c2n1 [SELICICLIB]	> 16 µM

test system: RXF 393; assay: cells; assay type: functional, cell-based, Homo sapiens; settings: Homo sapiens, RXF 393;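 note: growth inhibition of human RXF 393 cells, read out with a cell viability assay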
Description: SANGER: Inhibition of human RXF393 cell growth in a cell viability assay.

Structure (SMILES)	IC50
CC[C@H](CO)Nc1nc(NCc2ccccc2)c2ncn(C(C)C)c2n1 [SELICICLIB]	> 16 µM

test system: Ramos-2G6-4C10; assay: cells; assay type: functional, cell-based, Homo sapiens; settings: Homo sapiens, Ramos-2G6-4C10;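 note: growth inhibition of the cell line, measured by a cell viability read-out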
Description: SANGER: Inhibition of human Ramos-2G6-4C10 cell growth in a cell viability assay.

Structure (SMILES)	IC50
CC[C@H](CO)Nc1nc(NCc2ccccc2)c2ncn(C(C)C)c2n1 [SELICICLIB]	> 16 µM

test system: SCH; assay: cells; assay type: functional, cell-based, Homo sapiens; settings: Homo sapiens, SCH;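 note: growth inhibition of human SCH cells, read out in a cell viability assay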
Description: SANGER: Inhibition of human SCH cell growth in a cell viability assay.

Structure (SMILES)	IC50
CC[C@H](CO)Nc1nc(NCc2ccccc2)c2ncn(C(C)C)c2n1 [SELICICLIB]	> 16 µM

test system: SJSA-1; assay: cells; assay type: functional, cell-based, Homo sapiens; settings: Homo sapiens, SJSA-1;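 note: growth inhibition of human SJSA-1 cells, read out through a cell viability measurement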
Description: SANGER: Inhibition of human SJSA-1 cell growth in a cell viability assay.

Structure (SMILES)	IC50
CC[C@H](CO)Nc1nc(NCc2ccccc2)c2ncn(C(C)C)c2n1 [SELICICLIB]	> 16 µM

test system: SK-LMS-1; assay: cells; assay type: functional, cell-based, Homo sapiens; settings: Homo sapiens, SK-LMS-1;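 note: growth inhibition of human SK-LMS-1 cells, read out with a cell viability assay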
Description: SANGER: Inhibition of human SK-LMS-1 cell growth in a cell viability assay.

Structure (SMILES)	IC50
CC[C@H](CO)Nc1nc(NCc2ccccc2)c2ncn(C(C)C)c2n1 [SELICICLIB]	> 16 µM

test system: SK-MEL-2; assay: cells; assay type: functional, cell-based, Homo sapiens; settings: Homo sapiens, SK-MEL-2;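 note: growth inhibition of human SK-MEL-2 cells measured with a cell viability assay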
Description: SANGER: Inhibition of human SK-MEL-2 cell growth in a cell viability assay.

Structure (SMILES)	IC50
CC[C@H](CO)Nc1nc(NCc2ccccc2)c2ncn(C(C)C)c2n1 [SELICICLIB]	> 16 µM

test system: SK-PN-DW; assay: cells; assay type: functional, cell-based, Homo sapiens; settings: Homo sapiens, SK-PN-DW;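 note: growth inhibition measured with a viability assay on these cells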
Description: SANGER: Inhibition of human SK-PN-DW cell growth in a cell viability assay.

Structure (SMILES)	IC50
CC[C@H](CO)Nc1nc(NCc2ccccc2)c2ncn(C(C)C)c2n1 [SELICICLIB]	> 16 µM

test system: SW684; assay: cells; assay type: functional, cell-based, Homo sapiens; settings: Homo sapiens, SW684;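 note: growth inhibition of human SW684 cells, measured by a cell viability assay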
Description: SANGER: Inhibition of human SW684 cell growth in a cell viability assay.

Structure (SMILES)	IC50
CC[C@H](CO)Nc1nc(NCc2ccccc2)c2ncn(C(C)C)c2n1 [SELICICLIB]	> 16 µM

test system: ACN; assay: cells; assay type: functional, cell-based, Homo sapiens; settings: Homo sapiens, ACN;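 note: growth inhibition of the human ACN cell line, read out via cell viability testing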
Description: SANGER: Inhibition of human ACN cell growth in a cell viability assay.

Structure (SMILES)	IC50
CC[C@H](CO)Nc1nc(NCc2ccccc2)c2ncn(C(C)C)c2n1 [SELICICLIB]	> 16 µM

test system: AM-38; assay: cells; assay type: functional, cell-based, Homo sapiens; settings: Homo sapiens, AM-38;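 note: growth inhibition of AM-38 cells of human origin, read out by a cell viability assay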
Description: SANGER: Inhibition of human AM-38 cell growth in a cell viability assay.

Structure (SMILES)	IC50
CC[C@H](CO)Nc1nc(NCc2ccccc2)c2ncn(C(C)C)c2n1 [SELICICLIB]	> 16 µM

test system: BT-474; assay: cells; assay type: functional, cell-based, Homo sapiens; settings: Homo sapiens, BT-474
Description: SANGER: Inhibition of human BT-474 cell growth in a cell viability assay.

Structure (SMILES)	IC50
CC[C@H](CO)Nc1nc(NCc2ccccc2)c2ncn(C(C)C)c2n1 [SELICICLIB]	> 16 µM

test system: Becker; assay: cells; assay type: functional, cell-based, Homo sapiens; settings: Homo sapiens, Becker;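 note: growth inhibition of Becker cells, read out with a cell viability assay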
Description: SANGER: Inhibition of human Becker cell growth in a cell viability assay.

Structure (SMILES)	IC50
CC[C@H](CO)Nc1nc(NCc2ccccc2)c2ncn(C(C)C)c2n1 [SELICICLIB]	9.46 µM

test system: C8166; assay: cells; assay type: functional, cell-based, Homo sapiens; settings: Homo sapiens, C8166;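 note: growth inhibition of human C8166 cells measured by a cell viability assay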
Description: SANGER: Inhibition of human C8166 cell growth in a cell viability assay.

Structure (SMILES)	IC50
CC[C@H](CO)Nc1nc(NCc2ccccc2)c2ncn(C(C)C)c2n1 [SELICICLIB]	> 16 µM

test system: TE-10; assay: cells; assay type: functional, cell-based, Homo sapiens; settings: Homo sapiens, TE-10;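 note: growth inhibition of TE-10 cells, measured by a cell viability assay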
Description: SANGER: Inhibition of human TE-10 cell growth in a cell viability assay.

Structure (SMILES)	IC50
CC[C@H](CO)Nc1nc(NCc2ccccc2)c2ncn(C(C)C)c2n1 [SELICICLIB]	> 16 µM

test system: TE-6; assay: cells; assay type: functional, cell-based, Homo sapiens; settings: Homo sapiens, TE-6;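 note: growth inhibition of TE-6 cells, read out with a cell viability assay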
Description: SANGER: Inhibition of human TE-6 cell growth in a cell viability assay.

Structure (SMILES)	IC50
CC[C@H](CO)Nc1nc(NCc2ccccc2)c2ncn(C(C)C)c2n1 [SELICICLIB]	> 16 µM

test system: TE-9; assay: cells; assay type: functional, cell-based, Homo sapiens; settings: Homo sapiens, TE-9;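 note: cell growth inhibition, measured with a cell viability readout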
Description: SANGER: Inhibition of human TE-9 cell growth in a cell viability assay.

Structure (SMILES)	IC50
CC[C@H](CO)Nc1nc(NCc2ccccc2)c2ncn(C(C)C)c2n1 [SELICICLIB]	> 16 µM

test system: U-87 MG; assay: cells; assay type: functional, cell-based, Homo sapiens, U-87MG ATCC; settings: Homo sapiens, U-87 MG;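 note: growth inhibition of the cells measured with a viability assay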
Description: SANGER: Inhibition of human U-87-MG cell growth in a cell viability assay.

Structure (SMILES)	IC50
CC[C@H](CO)Nc1nc(NCc2ccccc2)c2ncn(C(C)C)c2n1 [SELICICLIB]	> 16 µM

test system: UACC-257; assay: cells; assay type: functional, cell-based, Homo sapiens; settings: Homo sapiens, UACC-257
Description: SANGER: Inhibition of human UACC-257 cell growth in a cell viability assay.

Structure (SMILES)	IC50
CC[C@H](CO)Nc1nc(NCc2ccccc2)c2ncn(C(C)C)c2n1 [SELICICLIB]	> 16 µM
